# e = 2'-O-(2-methoxyethyl) (MOE); d = 2'-deoxy (DNA)
# Tested on: human apolipoprotein B mRNA
# Assay: Inhibition of human apolipoprotein B mRNA levels in HepG2 cells, quantitative real-time PCR
# Type: cell-based
# Conditions: HepG2 cells; for % inhibition of apolipoprotein B mRNA levels: normalized to untreated control, average of two experiments
# Summary of the method: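 Apolipoprotein B transcript was quantified by one-step TaqMan RT-PCR, normalized to GAPDH or RiboGreen RNA, and expressed as percent inhibition against an untreated-sample standard curve. HepG2 cells were harvested 16-24 h after oligonucleotide exposure, which was delivered with 3.75 μg/mL Lipofectin over 4-7 h at 80% confluency.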
# [1] = 50 nm oligonucleotide, variable deoxy gap position
# [2] = 150 nm oligonucleotide, variable deoxy gap position
# [3] = Table 17 variable gap, 50 nM, averages from three experiments
# [4] = Table 17 variable gap, 150 nM, averages from three experiments
substance,measurement,setting,value
"308646 (antisense AGGTTACCAGCCACATGCAG; 4-10-6 2'-MOE gapmer, phosphorothioate, chemistry not fully specified) [compound 308646]",% INHIB 50 nm,[1],50%
same,% INHIB 150 nm,[2],76%
"308647 (antisense GCCTCAGTCTGCTTCGCACC; 4-10-6 2'-MOE gapmer, phosphorothioate, chemistry not fully specified) [compound 308647]",% INHIB 50 nm,[1],53%
same,% INHIB 150 nm,[2],86%
"308648 (antisense GCCTCAGTCTGCTTCGCGCC; 6-10-4 2'-MOE gapmer, phosphorothioate, chemistry not fully specified) [compound 308648]",% INHIB 50 nm,[3],78%
same,% INHIB 150 nm,[4],89%
"308649 (antisense AGGTTACCAGCCACATGCAG; 6-10-4 2'-MOE gapmer, phosphorothioate, chemistry not fully specified) [compound 308649]",% INHIB 50 nm,[1],68%
same,% INHIB 150 nm,[2],91%
"308650 (antisense GCCTCAGTCTGCTTCGCACC; 6-10-4 2'-MOE gapmer, phosphorothioate, chemistry not fully specified) [compound 308650]",% INHIB 50 nm,[1],74%
same,% INHIB 150 nm,[2],94%
"308651 (antisense GCCTCAGTCTGCTTCGCGCC; 7-10-3 2'-MOE gapmer, phosphorothioate, chemistry not fully specified) [compound 308651]",% inhibition of apolipoprotein B mRNA levels,12.5 nM oligonucleotide,57%
same,% inhibition of apolipoprotein B mRNA levels,37 nM oligonucleotide,76%
same,% inhibition of apolipoprotein B mRNA levels,75 nM oligonucleotide,84%
same,% inhibition of apolipoprotein B mRNA levels,150 nM oligonucleotide,90%
same,% inhibition of apolipoprotein B mRNA levels,300 nM oligonucleotide,88%
same,% INHIB 50 nm,[3],87%
same,% INHIB 150 nm,[4],88%
"308652 (antisense AGGTTACCAGCCACATGCAG; 7-10-3 2'-MOE gapmer, phosphorothioate, chemistry not fully specified) [compound 308652]",% INHIB 50 nm,[1],73%
same,% INHIB 150 nm,[2],95%
"308653 (antisense GCCTCAGTCTGCTTCGCACC; 7-10-3 2'-MOE gapmer, phosphorothioate, chemistry not fully specified) [compound 308653]",% INHIB 50 nm,[1],73%
same,% INHIB 150 nm,[2],89%
"308654 (antisense GCCTCAGTCTGCTTCGCGCC; 8-10-2 2'-MOE gapmer, phosphorothioate, chemistry not fully specified) [compound 308654]",% INHIB 50 nm,[3],81%
same,% INHIB 150 nm,[4],90%
"308655 (antisense AGGTTACCAGCCACATGCAG; 8-10-2 2'-MOE gapmer, phosphorothioate, chemistry not fully specified) [compound 308655]",% INHIB 50 nm,[1],84%
same,% INHIB 150 nm,[2],83%
"308656 (antisense GCCTCAGTCTGCTTCGCACC; 8-10-2 2'-MOE gapmer, phosphorothioate, chemistry not fully specified) [compound 308656]",% INHIB 50 nm,[1],37%
same,% INHIB 150 nm,[2],97%
"308657 (antisense GCCTCAGTCTGCTTCGCGCC; 9-10-1 2'-MOE gapmer, phosphorothioate, chemistry not fully specified) [compound 308657]",% INHIB 50 nm,[3],61%
same,% INHIB 150 nm,[4],78%
"308658 (antisense AGGTTACCAGCCACATGCAG; 9-10-1 2'-MOE gapmer, phosphorothioate, chemistry not fully specified) [compound 308658]",% inhibition of apolipoprotein B mRNA levels,12.5 nM oligonucleotide,29%
same,% inhibition of apolipoprotein B mRNA levels,37 nM oligonucleotide,61%
same,% inhibition of apolipoprotein B mRNA levels,75 nM oligonucleotide,73%
same,% inhibition of apolipoprotein B mRNA levels,150 nM oligonucleotide,78%
same,% inhibition of apolipoprotein B mRNA levels,300 nM oligonucleotide,90%
same,% INHIB 50 nm,[1],86%
same,% INHIB 150 nm,[2],78%
"308659 (antisense GCCTCAGTCTGCTTCGCACC; 9-10-1 2'-MOE gapmer, phosphorothioate, chemistry not fully specified) [compound 308659]",% INHIB 50 nm,[1],70%
same,% INHIB 150 nm,[2],93%
"308660 (antisense TGGTAGCCTCAGTCTGCTTC; 2-10-8 2'-MOE gapmer, phosphorothioate, chemistry not fully specified) [compound 308660]",% INHIB 50 nm,[1],72%
same,% INHIB 150 nm,[2],92%
"308661 (antisense AGTCTGCTTCGCGCCTTCTG; 2-10-8 2'-MOE gapmer, phosphorothioate, chemistry not fully specified) [compound 308661]",% INHIB 50 nm,[3],70%
same,% INHIB 150 nm,[4],91%
"308662 (antisense TGGTAGCCTCAGTCTGCTTC; 8-10-2 2'-MOE gapmer, phosphorothioate, chemistry not fully specified) [compound 308662]",% INHIB 50 nm,[1],76%
same,% INHIB 150 nm,[2],83%
"308663 (antisense AGTCTGCTTCGCGCCTTCTG; 8-10-2 2'-MOE gapmer, phosphorothioate, chemistry not fully specified) [compound 308663]",% INHIB 50 nm,[3],44%
same,% INHIB 150 nm,[4],84%
"331022 (antisense GCCTCAGTCTGCTTCGCAC; sugars from the 5' end e5 d10 e4, all phosphorothioate, methylation of C not given here) [compound 331022]",% Change in apolipoprotein B mRNA expression,"10 nM, 24 hour (Table 41)",−33%
same,% Change in apolipoprotein B mRNA expression,"50 nM, 24 hour (Table 41)",−49%
same,% Change in apolipoprotein B mRNA expression,"150 nM, 24 hour (Table 41)",−87%
"332769 (antisense GCCTCAGTCTGCTTCGCACC; all 2'-MOE, all phosphorothioate, methylation of C not given here) [compound 332769]",% Change in apolipoprotein B mRNA expression,"50 nM, 24 hour (Table 40)",−11%
same,% Change in apolipoprotein B mRNA expression,"150 nM, 24 hour (Table 40)",−14%
"332770 (antisense GCCTCAGTCTTCTTCGCACC; sugars from the 5' end e5 d10 e5, all phosphorothioate, methylation of C not given here) [compound 332770]",% Change in apolipoprotein B mRNA expression,"50 nM, 24 hour (Table 40)",+7%
same,% Change in apolipoprotein B mRNA expression,"150 nM, 24 hour (Table 40)",−22%
"332771 (antisense GCCTCAGTCTTATTCGCACC; sugars from the 5' end e5 d10 e5, all phosphorothioate, methylation of C not given here) [compound 332771]",% Change in apolipoprotein B mRNA expression,"50 nM, 24 hour (Table 40)",+37%
same,% Change in apolipoprotein B mRNA expression,"150 nM, 24 hour (Table 40)",+37%
"332772 (antisense GCCTCAGTATTATTCGCACC; sugars from the 5' end e5 d10 e5, all phosphorothioate, methylation of C not given here) [compound 332772]",% Change in apolipoprotein B mRNA expression,"50 nM, 24 hour (Table 40)",+99%
same,% Change in apolipoprotein B mRNA expression,"150 nM, 24 hour (Table 40)",+84%
"332773 (antisense GCCTCATTATTATTCGCACC; sugars from the 5' end e5 d10 e5, all phosphorothioate, methylation of C not given here) [compound 332773]",% Change in apolipoprotein B mRNA expression,"50 nM, 24 hour (Table 40)",+75%
same,% Change in apolipoprotein B mRNA expression,"150 nM, 24 hour (Table 40)",+80%
"332774 (antisense GCCTCATTATTATTAGCACC; sugars from the 5' end e5 d10 e5, all phosphorothioate, methylation of C not given here) [compound 332774]",% Change in apolipoprotein B mRNA expression,"50 nM, 24 hour (Table 40)",+62%
same,% Change in apolipoprotein B mRNA expression,"150 nM, 24 hour (Table 40)",+66%
"332775 (antisense GCCTCATTATTATTATCACC; sugars from the 5' end e5 d10 e5, all phosphorothioate, methylation of C not given here) [compound 332775]",% Change in apolipoprotein B mRNA expression,"50 nM, 24 hour (Table 40)",−1%
same,% Change in apolipoprotein B mRNA expression,"150 nM, 24 hour (Table 40)",+10%
"332776 (antisense GCCTAATTATTATTATCACC; sugars from the 5' end e5 d10 e5, all phosphorothioate, methylation of C not given here) [compound 332776]",% Change in apolipoprotein B mRNA expression,"50 nM, 24 hour (Table 40)",+10%
same,% Change in apolipoprotein B mRNA expression,"150 nM, 24 hour (Table 40)",+20%
"332777 (antisense GCCTCAGTCTGCTTCGCA; sugars from the 5' end e5 d10 e3, all phosphorothioate, methylation of C not given here) [compound 332777]",% Change in apolipoprotein B mRNA expression,"10 nM, 24 hour (Table 41)",−27%
same,% Change in apolipoprotein B mRNA expression,"50 nM, 24 hour (Table 41)",−53%
same,% Change in apolipoprotein B mRNA expression,"150 nM, 24 hour (Table 41)",-80%
"332778 (antisense GCCTCAGTCTGCTTC; sugars from the 5' end e5 d10, linkages s4 o1 s9 (s phosphorothioate, o phosphodiester), methylation of C not given here) [compound 332778]",% Change in apolipoprotein B mRNA expression,"10 nM, 24 hour (Table 41)",−11%
same,% Change in apolipoprotein B mRNA expression,"50 nM, 24 hour (Table 41)",−20%
same,% Change in apolipoprotein B mRNA expression,"150 nM, 24 hour (Table 41)",−58%
"332780 (antisense CCTCAGTCTGCTTCGCAC; sugars from the 5' end e4 d10 e4, all phosphorothioate, methylation of C not given here) [compound 332780]",% Change in apolipoprotein B mRNA expression,"10 nM, 24 hour (Table 41)",−3%
same,% Change in apolipoprotein B mRNA expression,"50 nM, 24 hour (Table 41)",−43%
same,% Change in apolipoprotein B mRNA expression,"150 nM, 24 hour (Table 41)",−74%
"332781 (antisense CTCAGTCTGCTTCGCA; sugars from the 5' end e3 d10 e3, all phosphorothioate, methylation of C not given here) [compound 332781]",% Change in apolipoprotein B mRNA expression,"10 nM, 24 hour (Table 41)",−9%
same,% Change in apolipoprotein B mRNA expression,"50 nM, 24 hour (Table 41)",−35%
same,% Change in apolipoprotein B mRNA expression,"150 nM, 24 hour (Table 41)",−60%
